According to patent US11464750B2, “Anticancer agent and use thereof” (priority 2017, dated 2022):

Key:
Type in all cases: cell-based, human
BALL-1 cells = experiment: MTT assay, BALL-1 cells; conditions: 0.01, 0.05, 0.1, 0.5, and 1 μM, 48 hours
Protocol: BALL-1 cells of a cell line derived from […], TKG0210 cells of a human myeloid leukemia cell line, and TKG0377 cells of a human T cell acute leukemia cell line were seeded in 96-well plates at 2.5×10^4 cells/well/100 μL, and cultured for 48 hours in the presence of 3EZ,20Ac-ingenol at final concentrations of 0 (control), 0.5, 1, 5, and 10 μM. Subsequently, cell proliferation was examined by MTT assay using a Cell Proliferation Kit 1 (Roche Applied Science).
BALL-1 cells were exposed to 3EZ,20Ac-ingenol, 3EE,20Ac-ingenol, 20Ac-ingenol, and ingenol at concentrations of 0.01, 0.05, 0.1, 0.5, and 1 μM for 48 hours. Thereafter, cell proliferation was examined by MTT assay. Cells that were not exposed to the chemical were used as controls. The chemical formulas of 3EZ,20Ac-ingenol, 3EE,20Ac-ingenol, and 20Ac-ingenol are as described above. The chemical formula of ingenol is shown in the following Formula (7).

JeKo-1 cells = experiment: MTT assay, JeKo-1 cells; conditions: 48 hours
Protocol: (§1) JeKo-1 cells of a cell line derived from a human mantle cell lymphoma were seeded in a 96-well plate at 1×10^4 cells/well/100 μL. In addition, Panc-1 cells of a cell line derived from a human pancreatic cancer were seeded in a 96-well plate at 3×10^3 cells/well/100 μL.
(§2) Subsequently, 3EZ,20Ac-ingenol at final concentrations of 0 (control), 0.1, 0.5, 1, 5, and 10 μM was added the wells of the respective cells, and culturing was performed for 48 hours. Subsequently, cell proliferation was examined by MTT assay using a Cell Proliferation Kit I (Roche Applied Science).
(§3) First, JeKo-1 cells were seeded in a 96-well plate at 1×10^4 cells/well/100 μL. Subsequently, irinotecan at a final concentration of 0 (control), 0.5, 1, 5, 10, 20, and 30 μM was added to the wells of the cells and culturing was performed for 48 hours. In addition, Panc-1 cells were seeded in a 96-well plate at 3×10^3 cells/well/100 μL. Subsequently, irinotecan at a final concentration of 0 (control), 0.5, 1, 5, 10, 20, 30, and 50 μM was added to the wells of the cells and culturing was performed for 48 hours. Subsequently, cell proliferation was examined by MTT assay using a Cell Proliferation Kit I (Roche Applied Science).

Panc-1 cells = experiment: MTT assay, Panc-1 cells; conditions: irinotecan, 48 hours
Protocol: as §1, §2, §3

Row | SMILES | inhibition of proliferation of the BALL-1 cells (BALL-1 cells) | proliferation inhibition of JeKo-1 cells (JeKo-1 cells; 1 to 20 μM of irinotecan) | IC50 (JeKo-1 cells; Homo sapiens, JeKo-1, MTT assay, read-out: IC50 with respect to the JeKo-1 cells) [µM] | resistance of Panc-1 cells (Panc-1 cells)
1 | CCCCC/C=C/C=C/C(=O)O[C@H]1C(C)=C[C@]23C(=O)[C@@H](C=C(COC(C)=O)[C@@H](O)[C@]12O)[C@H]1[C@@H](C[C@H]3C)C1(C)C [3EE,20Ac-ingenol] | a significant level of inhibition of proliferation | – | – | –
2 | CC(=O)OCC1=C[C@@H]2C(=O)C3(C=C(C)[C@H](O)[C@@]3(O)[C@@H]1O)[C@H](C)C[C@@H]1[C@H]2C1(C)C [20Ac-ingenol] | inhibition of proliferation of the BALL-1 cells was observed | – | – | –
3 | CC1=C[C@]23C(=O)[C@@H](C=C(CO)[C@@H](O)[C@]2(O)[C@H]1O)[C@H]1[C@@H](C[C@H]3C)C1(C)C [ingenol, reference compound] | little effect on proliferation | – | – | –
4 | CCc1c2c(nc3ccc(OC(=O)N4CCC(N5CCCCC5)CC4)cc13)-c1cc3c(c(=O)n1C2)COC(=O)[C@]3(O)CC [irinotecan, reference compound] | – | grown cells were almost eliminated | 5 | showed resistance
